# Where a SMILES comes first, the peptide text is derived from it. Bridges are numbered along the chain shown (N, C = ends).
# How the values were obtained:
# [1] = oral bioavailability in rats, LCMS; type: in vivo, rat; settings: SEQ ID NO:3 10 mg/kg
# Method: Similarly, oral bioavailability was determined in rats using LCMS methodology. Rat plasma samples containing SEQ ID NO:3 and/or SEQ ID NO:6 were extracted using a Waters Oasis MAX 96 well solid phase extraction (SPE) plate. A 200 μL volume of rat plasma was mixed with 200 μL of ^13C9, ^15N—SEQ ID NO:3 in the well of a prepared SPE plate. The samples were drawn through the stationary phase with 15 mm Hg vacuum. All samples were rinsed with 200 μL of 2% ammonium hydroxide in water followed by 200 μL of 20% methanol in water. The samples were eluted with consecutive 100 μL volumes of […] formic acid/water/methanol and 100 μL 5/15/80 formic acid/water/methanol. The samples were dried under nitrogen and resuspended in 100 μL of 20% methanol in water. Samples were analyzed by a Waters Quattro Micro mass spectrometer coupled to a Waters 1525 binary pump with a Waters 2777 autosampler. A 40 μL volume of each sample was injected onto a Thermo Hypersil GOLD C18 column (2.1×50 mm, 5 um). SEQ ID NO:3 and SEQ ID NO:6 were eluted by a gradient over 3 minutes with acetonitrile and water containing 0.05% trifluoroacetic acid. The Quattro Micro mass spectrometer was run in multiple reaction monitoring (MRM) mode using the mass transitions of 764>182 and 682>136 for SEQ ID NO:3 and SEQ ID NO:6 respectively. Using this methodology, SEQ ID NO:3 was dosed orally and by IV to rats at 10 mg/kg. […] In this experiment, the limit of detection (LOD) for SEQ ID NO:6 was 0.78 nM. SEQ ID NO:6 was detected at all time points for the intravenous dose and was not detected beyond 240 min for the oral dose. For non-detected values, the LOD was used as an upper estimate of the concentration of SEQ ID NO:6. The calculated value for AUCp.o., (0-6h) was <1308 nM-min and AUCi.v.,(0-6h) was 1,590,000 nM-min. The 6 h bioavailability of SEQ ID NO:6 determined by circulating plasma levels was 0.08%
# [2] = tested on: healthy males and postmenopausal females; experiment: single oral dose study in humans, bowel habits (BSFS); type: in vivo, human
# Method: Single doses of 30, 100, 300, 1000 or 3000 μg of chemically synthesized SEQ ID NO:3 were given to 30 healthy males and postmenopausal females. At each dose level (100 μg was done twice) SEQ ID NO:3 or placebo (vehicle) was administered orally in 5.0 mL 50 mM phosphate buffer (pH 6.0) plus 3×20 mL water rinses and 175 mL water after at least a 10-hour fast. In each dosing group, subjects were randomized to receive either placebo (1 subject) or SEQ ID NO:3 (3-4 subjects). Bowel habits (including Bristol Stool Form Scale score (BSFS; FIG. 14a), stool frequency, and stool weight) were evaluated for each collected bowel movement 48 hours prior to dose and up to approximately 48 hours postdose.
# mouse = experiment: phenylbenzoquinone (PBQ)-induced writhing model; settings: oral; SEQ ID NO:5 1 mg/kg, SEQ ID NO:3 2.5 mg/kg; versus vehicle control, FIGS. 8a, 8b
# Female CD rats = experiment: ligated loop model in rats (cGMP, secretion); type: in vivo; settings: center loop of the rat small intestine, 5 μg, FIG. 17b
# Excerpt: In the case of the rat, however four loops of intestine were surgically ligated. The first three loops were distributed equally in the small intestine and the fourth loop was located in colon. […] SEQ ID NO:3 increases cGMP levels and secretion in the center loop of the rat small intestine as shown in FIG. 17b (n=9-10 animal per group for secretion assays; n=7-8 animals for cGMP assays).
compound,measurement,setting,value
"C[C@@H]1NC(=O)[C@@H]2CCCN2C(=O)[C@H](CC(N)=O)NC(=O)[C@@H]2CSSC[C@H](N)C(=O)N[C@H]3CSSC[C@H](NC1=O)C(=O)N[C@@H]([C@@H](C)O)C(=O)NCC(=O)N[C@H](C(=O)N[C@@H](Cc1ccc(O)cc1)C(=O)O)CSSC[C@H](NC(=O)[C@H](Cc1ccc(O)cc1)NC(=O)[C@H](CCC(=O)O)NC3=O)C(=O)N2 [SEQ ID NO:3] (H-CCEYCCNPACTGCY-OH; disulfide 1-6, 2-10, 5-13; N-terminus and C-terminus assumed)",6 h bioavailability when AUC values for SEQ ID NO:6 are included,[1],0.13%
same,percent of subjects with at least a 2-point increase in BSFS consistency score,"[2]; 1000 μg dose group, mean pre-dose compared to peak 48 hours post-dose, FIG. 14c",highest percent of subjects
same,BSFS post-dose scores versus dose,[2]; single oral dose 30-3000 μg,Higher BSFS post-dose scores correlated with a higher dose
same,maximum BSFS score,"[2]; single oral dose 30-3000 μg, FIG. 14b",increase
same,writhings,mouse,Significant reductions in writhings
same,cGMP levels in ligated loop,Female CD rats,increases
same,secretion in ligated loop,Female CD rats,increases

# Source: patent US20090305993A1, “METHODS AND COMPOSITION FOR THE TREATMENT OF GASTROINTESTINAL DISORDERS” (IRONWOOD PHARMACEUTICALS, INC., priority 2006, published 2009)
